In US7332279B2 (Glycozym APS, priority 1999, dated 2008):
Read-outs that look alike come from different tables or passages of the source.

Key:
β3Gal-T5 [1] = target: T1, β3Gal-T5 (Homo sapiens, UniProt Q9Y2C3, M85T); assay: Galactosyltransferase assay, partially purified secreted recombinant β3Gal-T5, saccharide acceptors; format: biochemical; conditions: for β3Gal-T5 activity, substrate concentration 1 mM: acceptor 1 mM; for β3Gal-T5 activity, substrate concentration 5 mM: acceptor 5 mM; for donor substrate utilisation by β3Gal-T5: with the acceptor substrates tested (data not shown)
T1 construct: designed to exclude the hydrophobic transmembrane segment and to encode amino acid residues 25-310; secretion signal of vector pAcGP67B (gp67); made in house; host or cells: baculovirus; Sf9 cells (media) and High Five cells (serum-free medium, partially purified)
T1 sequence (Q9Y2C3 25-310 M85T): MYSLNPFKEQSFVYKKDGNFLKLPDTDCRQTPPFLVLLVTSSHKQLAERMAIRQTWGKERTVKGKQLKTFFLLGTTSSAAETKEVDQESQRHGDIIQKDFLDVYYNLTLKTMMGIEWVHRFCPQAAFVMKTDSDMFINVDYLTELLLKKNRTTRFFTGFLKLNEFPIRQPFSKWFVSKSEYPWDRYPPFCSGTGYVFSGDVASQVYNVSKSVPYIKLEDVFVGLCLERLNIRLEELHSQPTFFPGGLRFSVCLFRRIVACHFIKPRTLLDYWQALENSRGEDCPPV
Excerpt: PCR product was cloned into the BamHI site of pAcGP67B (Pharmingen). […] This PCR product was cloned into the BamHI site of pVL1193 (Pharmingen). Both soluble and full length constructs were fully sequenced to confirm fidelity. Plasmids […]5-full were co-transfected with Baculo-GoldTM DNA (Pharmingen) as described previously (Bennett, […]. and Clausen, H. cDNA cloning and expression of a novel human UDP-N-acetyl-alpha-D-galactosamine. Polypeptide N-acetyl-galactosaminyl-transferase, GalNAc-T3. J. Biol. Chem. 271:17006-17012, 1996). Recombinant Baculo-virus were obtained after two successive amplifications in Sf9 cells grown in serum-containing medium, and titers of virus were estimated by titration in 24-well plates with monitoring of enzyme activities. […] J. Biol. […] J. Biol. […] Polypeptide N-acetyl-galactosaminyl-transferase, GalNAc-T3. J. Biol. Chem. 271:17006-17012, 1996). For large scale expression amplified virus was used to infect High FiveTM cells grown in serum-free media (Invitrogen) in upright roller bottles shaking at 140 rpm and 27° C. The kinetic properties were determined with partially purified, secreted forms of the enzymes. Semipurification of enzymes from serum-free medium of infected High-FiveTM cells was performed by sequential Amberlite, DEAE-Sephacel and 5-Sepharose chromatography as described previously ([…]., et al. […] J. Biol. Chem. 272:23503-23514, 1997). Comparisons of enzymes were performed relatively to the activity obtained with βGlcNAc-Bz1 (Tables II and III). Full length enzymes were assayed with 1% Triton CF54 homogenates of washed cells. […] Reaction products were quantified by Dowex-1 chromatography. […] P. and Clausen, H. […] J. Biol. Chem. 273:29295-29305, 1998). The transfer of Gal was evaluated after acid precipitation by filtration through Whatman GF/C glass fibre filters. […] Assays with glycolipid acceptors were conducted as previously described (Holmes, E. H. […] Arch Biochem Biophys 270:630-646, 1989) in reaction mixtures containing 2.5 μmol HEPES buffer, pH 7.2, μmol MnCl2, 100 μg taurodeoxycholate or Triton CF-54, 20 μg acceptor glycolipid, 15 nmol UDP-[^14C]-galactose (13,000 cpm/nmol) and enzyme in a total volume of 100 μl. Conditions for incubation and product isolation were as previously described (Id.).

β3Gal-T5 [2] = target: T1, β3Gal-T5; assay: Galactosyltransferase assay with glycolipid acceptors, β3Gal-T5; format: biochemical; conditions: for β3Gal-T5 activity with glycolipid acceptor, Triton CF-54: 100 μg Triton CF-54/100 μl; for β3Gal-T5 activity with glycolipid acceptor, Triton CF-54 / β3Gal-T5 activity with glycolipid acceptor, TDOC: 20 μg glycolipid; for β3Gal-T5 activity with glycolipid acceptor, TDOC: 100 μg taurodeoxycholate/100 μl
Experimental: The kinetic properties were determined with partially purified, secreted forms of the enzymes. Semipurification of enzymes from serum-free medium of infected High-Five™ cells was performed by sequential Amberlite, DEAE-Sephacel and 5-Sepharose chromatography as described previously (Wandall, H. H., Hassan, H., Mirgorodskaya, E., et al. Substrate specificities of three. members of the human UDP-N-acetyl-alpha-D-galactosamine:Polypeptide Nacetylgalactosaminyltransferase family, GalNAc-T1, -T2, and -T3. J. Biol. Chem. 272:23503-23514, 1997). Comparisons of enzymes were performed relatively to the activity obtained with βGlcNAc-Bz1 (Tables II and III). Full length enzymes were assayed with 1% Triton CF54 homogenates of washed cells. Enzyme assays were performed in 50 μl total reaction mixtures containing 25 mM Cacodylate (pH 7.5), 10 mM MnCl2, 0.25% Triton X-100, 100 μM UDP-[^14C]-Gal (2,600 cpm/nmol) (Amersham), and varying concentrations of acceptor substrates (Sigma) (see Table I for structures). Reaction products were quantified by Dowex-1 chromatography. […] The transfer of Gal was evaluated after acid precipitation by filtration through Whatman GF/C glass fibre filters. […] Assays with glycolipid acceptors were conducted as previously described (Holmes, E. H. Characterization and membrane organization of beta 1-3- and beta 1-4-galactosyltransferases from human colonic adenocarcinoma cell lines Cob 205 and SW403: basis for preferential synthesis of type 1 chain lacto-series carbohydrate structures. Arch Biochem Biophys 270:630-646, 1989) in reaction mixtures containing 2.5 μmol HEPES buffer, pH 7.2, μmol MnCl2, 100 μg taurodeoxycholate or Triton CF-54, 20 μg acceptor glycolipid, 15 nmol UDP-[^14C]-galactose (13,000 cpm/nmol) and enzyme in a total volume of 100 μl. Conditions for incubation and product isolation were as previously described (Id.).

β3Gal-T5 activity, substrate concentration 1 mM (β3Gal-T5 [1]) [nmol/min/mL]	β3Gal-T5 activity, substrate concentration 5 mM (β3Gal-T5 [1]) [nmol/min/mL]	Compound	also measured
0.0	0.0	O=[N+]([O-])c1ccccc1O[C@@H]1O[C@H](CO)[C@H](O)[C@H](O)[C@H]1O [β-D-Gal-1-o-Nph]	–
0.0	0.0	CC(=O)N[C@H]1[C@H](Oc2ccc3c(C)cc(=O)oc3c2)O[C@H](CO)[C@H](O)[C@@H]1O [β-D-GalNAc-Me-umb]	–
0.0	0.0	Cc1cc(=O)oc2cc(O[C@@H]3O[C@H](CO)[C@@H](O)[C@H](O)[C@H]3O)ccc12 [β-D-Glc-Me-umb]	–
2.1	6.9	CC(=O)N[C@H]1[C@H](Oc2ccc([N+](=O)[O-])cc2)O[C@H](CO)[C@@H](O)[C@@H]1O [β-D-GlcNAc-1-p-Nph]	–
1.1	3.4	CC(=O)N[C@@H]1[C@@H](O)[C@H](O)[C@@H](CO)O[C@H]1Sc1ccc([N+](=O)[O-])cc1 [β-D-GlcNAc-1-thio-p-Nph]	–
0.0	0.0	CC(=O)NC1C(OC2C(OCC3OC(O)C(O)C(OC4OC(CO)C(O)C(O)C4OC4OC(CO)C(O)C(O)C4NC(C)=O)C3O)OC(CO)C(O)C2O)OC(CO)C(O)C1O [β-D-GlcNAc-(1–2)-α-D-Man-(1–3)-[β-D-GlcNAc-(1–2)-α-D-Man-(1–6)-]D-Man]	–
0.0	3.0	CC(=O)NC1C(OC2C(O)OC(CO)C(O)C2O)OC(CO)C(O)C1O [β-D-GlcNAc-(1–2)-α-D-Man]	–
27.4	87.4	CO[C@@H]1O[C@H](CO)[C@H](O)[C@H](O[C@@H]2O[C@H](CO)[C@@H](O)[C@H](O)[C@H]2NC(C)=O)[C@H]1O [β-D-GlcNAc-(1–3)-β-D-Gal-1-Me]	Vmax (β3Gal-T5 [1]; Table V): 972.9 pmol/min; Km (β3Gal-T5 [1]; Table V, read-out: Km): 1800 µM; Km (β3Gal-T5 [1]; acceptor substrate, read-out: apparent Km of β3Gal-T5): 1800 µM
4.0	13.0	COC1OC(COC2OC(CO)C(O)C(O)C2NC(C)=O)C(O)C(O)C1O [β-D-GlcNAc-(1–6)-α-D-Man-1-Me]	–
2.6	7.5	CC(=O)N[C@H]1[C@H](Oc2ccc3c(C)cc(=O)oc3c2)O[C@H](CO)[C@@H](O)[C@@H]1O [β-D-GlcNAc-Me-umb]	–
0.0	0.0	Cc1cc(=O)oc2cc(O[C@@H]3OC[C@@H](O[C@@H]4O[C@H](CO)[C@H](O)[C@H](O)[C@H]4O)[C@H](O)[C@H]3O)ccc12 [β-Gal-(1–4)-β-D-Xyl-1-Me-umb]	–

More lines, now with the values behind:

Compound	β3Gal-T5 activity, substrate concentration 1 mM (β3Gal-T5 [1]) [nmol/min/mL]	β3Gal-T5 activity, substrate concentration 5 mM (β3Gal-T5 [1]) [nmol/min/mL]	also measured
CC(=O)N[C@@H]1[C@@H](O)[C@H](O)[C@@H](CO)O[C@@H]1O [D-GIcNAc]	0.5	1.2	–
CC(=O)N[C@H]1[C@@H](OP(=O)(O)OP(=O)(O)OC[C@H]2O[C@@H](n3ccc(=O)[nH]c3=O)[C@H](O)[C@@H]2O)O[C@H](CO)[C@H](O)[C@@H]1O [UDP-GalNAc]	–	–	donor substrate utilisation by β3Gal-T5 (β3Gal-T5 [1]): did not utilize
CC(=O)N[C@H]1[C@@H](OP(=O)(O)OP(=O)(O)OC[C@H]2O[C@@H](n3ccc(=O)[nH]c3=O)[C@H](O)[C@@H]2O)O[C@H](CO)[C@@H](O)[C@@H]1O [UDPGlcNAc]	–	–	donor substrate utilisation by β3Gal-T5 (β3Gal-T5 [1]): did not utilize
O=[N+]([O-])c1ccccc1O[C@H]1O[C@H](CO)[C@H](O)[C@H](O)[C@H]1O [α-D-Gal-1-o-Nph]	0.0	0.0	–
CC(=O)N[C@H]1[C@@H](OCc2ccccc2)O[C@H](CO)[C@H](O)[C@@H]1O [α-D-GalNAc-Bzl]	0.0	0.0	–
CC(=O)N[C@H]1[C@@H](OCc2ccccc2)O[C@H](CO)[C@@H](O)[C@@H]1O [α-D-GlcNAc-Bzl]	0.0	0.0	–
GalNAcβ1-3Galα1-4Galβ1-4Glcβ1-Cer [Gβ4]	–	–	β3Gal-T5 activity with glycolipid acceptor, Triton CF-54 (β3Gal-T5 [2]): 0.09 µmol/h/mg; β3Gal-T5 activity with glycolipid acceptor, TDOC (β3Gal-T5 [2]): 0.6 µmol/h/mg
GalNAcβ1-4Galβ1-4Glcβ1-Cer [Gg3]	–	–	β3Gal-T5 activity with glycolipid acceptor, Triton CF-54 (β3Gal-T5 [2]): 0.005 µmol/h/mg; β3Gal-T5 activity with glycolipid acceptor, TDOC (β3Gal-T5 [2]): 0.09 µmol/h/mg
GlcNAcβ1-3Galβ1-4G1cNAcβ1-3Galβ1-4Glcβ1-Cer [nLC5]	–	–	activity, fold lower than with Lc3 (β3Gal-T5 [2]): ~3 fold; β3Gal-T5 activity with glycolipid acceptor, Triton CF-54 (β3Gal-T5 [2]): 0.4 µmol/h/mg; β3Gal-T5 activity with glycolipid acceptor, TDOC (β3Gal-T5 [2]): 1.6 µmol/h/mg
Glcβ1-Cer [GlcCer]	–	–	β3Gal-T5 activity with glycolipid acceptor, TDOC (β3Gal-T5 [2]): 0.04 µmol/h/mg
